Where “and” joins values, the source holds several entries; their conditions need not be identical. Equal entries are not always repeated.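 Five concentrations, 48 hours, 96-well plates. GI50 = concentration required for 50% inhibition of growth. TGI is the concentration that stops growth completely.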

Test systems include 786-0 renal; COLO 205 colon; DMS 114 small cell lung; IGROV1 ovarian; M19-MEL melanoma; SK-MEL-28 melanoma; UACC-257 melanoma; XF 498 CNS; HCT-116 colon; RXF 393 renal.
What all share (assay): NCI-60 cell line screen, 48 h

For the molecule `Nc1c(-c2ccc(-c3c(N)[n+]([O-])c4ccccc4[n+]3[O-])cc2)[n+]([O-])c2ccccc2[n+]1[O-]`, the TGI was found to be 26.9 µM in the assay on 786-0 renal; 29.6 µM in the assay with COLO 205 colon; 16.3 µM in the assay with DMS 114 small cell lung; 47.5 µM in the assay on IGROV1 ovarian; 36.2 µM in the assay with M19-MEL melanoma; 20.9 µM with SK-MEL-28 melanoma. The TGI in the assay with UACC-257 melanoma worked out at 13.8 µM; with XF 498 CNS it was 23.9 µM.

With `O=C(NCCOCCO)c1ccc(O)cc1`, the TGI in the assay with 786-0 renal, with COLO 205 colon, in the assay on DMS 114 small cell lung, with HCT-116 colon, in the assay with IGROV1 ovarian and with M19-MEL melanoma was > 100 µM throughout. Also, the TGI with RXF 393 renal, in the assay on SK-MEL-28 melanoma and with XF 498 CNS was > 100 µM throughout.

As for `CC(=O)c1ccc(-c2ccc(C(C)=O)s2)s1`, the TGI with 786-0 renal is > 100 µM; with COLO 205 colon, > 100 µM; in the assay with DMS 114 small cell lung, 2.76 µM; with HCT-116 colon, > 100 µM; in the assay with IGROV1 ovarian it was > 100 µM; with M19-MEL melanoma it was > 100 µM. Moreover, the TGI in the assay on RXF 393 renal was > 100 µM; in the assay with SK-MEL-28 melanoma, 3.24 µM; in the assay on UACC-257 melanoma, > 100 µM; with XF 498 CNS it was > 100 µM.

In the case of `Cn1c(=O)ccc2cc(C(=O)c3ccccc3)ccc21`, the TGI with 786-0 renal is > 100 µM; in the assay with COLO 205 colon it was > 100 µM; with DMS 114 small cell lung it was 81.1 µM; with HCT-116 colon, > 100 µM; in the assay with IGROV1 ovarian it was > 100 µM; with M19-MEL melanoma, > 100 µM. The TGI in the assay with SK-MEL-28 melanoma and in the assay on XF 498 CNS was > 100 µM in each case.

With `Cn1c(=O)c2nc3sc4ccccc4c(=N)n3c2n(C)c1=O`, the TGI with 786-0 renal, in the assay on COLO 205 colon, in the assay on DMS 114 small cell lung, in the assay with IGROV1 ovarian, in the assay with M19-MEL melanoma and with RXF 393 renal was > 100 µM in each case. For the same molecule, the TGI with SK-MEL-28 melanoma, in the assay on UACC-257 melanoma and in the assay with XF 498 CNS was > 100 µM in each case.

Regarding `COc1ccc(/C=C2\CCC(CN(C)C)C2=O)cc1` (stereo unspecified), the TGI in the assay on 786-0 renal stood at 3.17 µM; with COLO 205 colon, 10.4 µM; in the assay with DMS 114 small cell lung, 21.6 µM; with HCT-116 colon, 8.27 µM; in the assay with IGROV1 ovarian, 18.4 µM; with M19-MEL melanoma, 26.6 µM. Besides, the TGI with RXF 393 renal was determined as 13.6 µM; with SK-MEL-28 melanoma, 14.6 µM; in the assay with UACC-257 melanoma, 13.3 µM; in the assay on XF 498 CNS, 16.3 µM.

For the molecule `CC(=O)Oc1cc(OC(C)=O)c(OC(C)=O)c2c1CC1C(=O)C3(CCc4ccccc43)C(=O)C1C2` (stereo unspecified), the TGI in the assay on 786-0 renal was 26.4 µM; in the assay on COLO 205 colon, 37.9 µM; in the assay with DMS 114 small cell lung, 29.4 µM; with IGROV1 ovarian, 38.6 µM; with M19-MEL melanoma it was 30.1 µM; in the assay with RXF 393 renal, 28.6 µM. The figures for the TGI in the assay with SK-MEL-28 melanoma and in the assay with XF 498 CNS were 36.5 µM and 27.9 µM, respectively.

With `COC(=O)C1=CCS(=O)(=O)C1`, the TGI in the assay with 786-0 renal, with COLO 205 colon, in the assay on DMS 114 small cell lung, in the assay on HCT-116 colon, in the assay with IGROV1 ovarian and in the assay with M19-MEL melanoma was > 100 µM each time. In addition, the TGI in the assay on RXF 393 renal, in the assay on SK-MEL-28 melanoma, in the assay on UACC-257 melanoma and in the assay on XF 498 CNS was > 100 µM throughout.

For the molecule `O=c1cc(/C=C/c2ccccc2)c2ccc(O/C(=C\c3ccccc3)c3nc4ccccc4c(=O)o3)cc2o1`, the TGI with 786-0 renal is > 100 µM; with COLO 205 colon it was 73.8 µM; with DMS 114 small cell lung, 71.7 µM; in the assay on HCT-116 colon, 36.5 µM; in the assay on IGROV1 ovarian it was > 100 µM; in the assay with M19-MEL melanoma it was 91 µM. Besides, the TGI with SK-MEL-28 melanoma is 34.5 µM; with UACC-257 melanoma it was 98.4 µM; in the assay on XF 498 CNS, 70.5 µM.

For the molecule `COc1nc(C(Cl)(Cl)Cl)c(Cl)c(OC)c1Cl`, the GI50 with 786-0 renal was > 41.1 µM; in the assay with DMS 114 small cell lung, 19.7 µM; in the assay with IGROV1 ovarian, > 58.5 µM; with M19-MEL melanoma, 25.3 µM; in the assay with SK-MEL-28 melanoma, > 50.4 µM; in the assay on UACC-257 melanoma, > 50.9 µM. For the same molecule, the TGI was > 55.3 µM and 18.8 µM with 786-0 renal; > 65.1 µM and 80 µM in the assay on COLO 205 colon; 45.9 µM and 61.6 µM in the assay with DMS 114 small cell lung; > 57.8 µM and 78.3 µM with HCT-116 colon; 89.8 µM in the assay with IGROV1 ovarian; 58.5 µM and 67 µM in the assay on M19-MEL melanoma. Moreover, the TGI was > 55.1 µM and 71.8 µM with RXF 393 renal; > 83.5 µM and 75.6 µM with SK-MEL-28 melanoma; > 72.9 µM and 79.7 µM in the assay with UACC-257 melanoma; 54.5 µM in the assay on XF 498 CNS.

For `CC12CCC(C)(c3cc(O)c(O)cc31)c1cc(O)c(O)cc12`, the TGI in the assay on 786-0 renal amounted to 27.9 µM; with COLO 205 colon, 30 µM; in the assay with DMS 114 small cell lung, 31.1 µM; with IGROV1 ovarian it was 40.4 µM; with M19-MEL melanoma, 31.6 µM; in the assay with RXF 393 renal, 31.3 µM. Moreover, the TGI in the assay with SK-MEL-28 melanoma came to 34.1 µM; in the assay on UACC-257 melanoma, 29.8 µM; with XF 498 CNS, 34 µM.

For `O=c1c2ccc(Br)cc2nc(-c2ccccc2)n1NC1OC(CO)C(O)C(O)C1O` (stereo unspecified), the TGI in the assay with 786-0 renal, in the assay on COLO 205 colon, in the assay with DMS 114 small cell lung, in the assay on HCT-116 colon, in the assay with IGROV1 ovarian and in the assay with M19-MEL melanoma was > 100 µM throughout. For the same molecule, the TGI in the assay on SK-MEL-28 melanoma, with UACC-257 melanoma and with XF 498 CNS was > 100 µM throughout.

For the molecule `CC1(C)OC(=O)C(c2ccsc2)C(=O)O1`, the TGI in the assay with 786-0 renal, with COLO 205 colon, in the assay with DMS 114 small cell lung, with HCT-116 colon, in the assay on M19-MEL melanoma and in the assay on RXF 393 renal was > 100 µM throughout. The TGI in the assay with SK-MEL-28 melanoma, in the assay with UACC-257 melanoma and in the assay on XF 498 CNS was > 100 µM throughout.

Consider `COc1cc(C2C(C(=O)Nc3ccccc3C)=C(C)NC(C)=C2C(=O)Nc2ccccc2C)ccc1O`, for which the TGI in the assay with 786-0 renal, in the assay on COLO 205 colon, in the assay on DMS 114 small cell lung, in the assay with HCT-116 colon, in the assay on IGROV1 ovarian and with M19-MEL melanoma was > 100 µM throughout. Further, the TGI in the assay with RXF 393 renal, with SK-MEL-28 melanoma, with UACC-257 melanoma and in the assay on XF 498 CNS was > 100 µM throughout.

In the case of `O=C1OC(=O)C2C1C1(c3ccccc3)OC2(c2ccccc2)c2c(Br)c(Br)c(Br)c(Br)c21` (stereo unspecified), the TGI in the assay with 786-0 renal, in the assay with COLO 205 colon, with DMS 114 small cell lung, with HCT-116 colon, in the assay on IGROV1 ovarian and in the assay on M19-MEL melanoma was > 100 µM in each case. In addition, the TGI in the assay on RXF 393 renal, in the assay on UACC-257 melanoma and in the assay on XF 498 CNS was > 100 µM each time.

For `CCN(CC)[C@@H]1c2cc3c(cc2C(c2cc(OC)c(O)c(OC)c2)C2C(=O)CO[C@@H]21)OCO3` (stereo partly specified), the TGI in the assay with 786-0 renal, in the assay with COLO 205 colon, with DMS 114 small cell lung, with HCT-116 colon, with IGROV1 ovarian and in the assay with M19-MEL melanoma was > 100 µM throughout. Moreover, the TGI with RXF 393 renal, with SK-MEL-28 melanoma, with UACC-257 melanoma and with XF 498 CNS was > 100 µM throughout.

Regarding `CCOC(=O)/C(C#N)=C/c1[nH]c(C)c(C)c1C`, the TGI with 786-0 renal, in the assay with COLO 205 colon, with DMS 114 small cell lung, in the assay on HCT-116 colon, in the assay with IGROV1 ovarian and in the assay on M19-MEL melanoma was > 100 µM in each case. In addition, the TGI in the assay with RXF 393 renal, with UACC-257 melanoma and in the assay on XF 498 CNS was > 100 µM throughout.

As to `COc1ccc(/C=C\c2cc(OC)c(OC(C)=O)c(OC)c2)cc1`, the TGI is > 100 µM in the assay with 786-0 renal; > 100 µM in the assay with COLO 205 colon; 61.7 µM with DMS 114 small cell lung; > 100 µM in the assay on HCT-116 colon; > 100 µM in the assay with IGROV1 ovarian; > 100 µM in the assay with M19-MEL melanoma. For the same molecule, the TGI with SK-MEL-28 melanoma is 26.2 µM; in the assay with UACC-257 melanoma, 95.1 µM; in the assay with XF 498 CNS, > 100 µM.

Consider `N[C@@H](Cc1ccc(N(CCCl)CCCl)cc1)C(=O)O`, for which the GI50 was 13.3 µM with 786-0 renal; 23.6 µM and 18.4 µM with COLO 205 colon; 13 µM in the assay with DMS 114 small cell lung; 25.4 µM and 20.9 µM with HCT-116 colon; 15.2 µM and 20.3 µM and 48.6 µM in the assay with IGROV1 ovarian; 15.9 µM in the assay on M19-MEL melanoma. The GI50 with RXF 393 renal was 16.9 µM and 15.9 µM; with SK-MEL-28 melanoma it was 68.2 µM and 27.3 µM; in the assay with UACC-257 melanoma it was 37.6 µM and 20.2 µM; in the assay with XF 498 CNS, 20.9 µM and 22 µM. In addition, the TGI was 48 µM and 72.6 µM with 786-0 renal; > 100 µM and 37.1 µM and 107 µM in the assay on COLO 205 colon; 29.1 µM and 86.4 µM in the assay on DMS 114 small cell lung; > 100 µM and 51.1 µM and 137 µM in the assay with HCT-116 colon; 74.3 µM and 57.1 µM and 139 µM in the assay with IGROV1 ovarian; 45.3 µM and 102 µM in the assay on M19-MEL melanoma. Besides, the TGI with RXF 393 renal was 47.1 µM and 32.9 µM and 69.9 µM; in the assay on SK-MEL-28 melanoma it was > 100 µM and 73.5 µM and 165 µM; in the assay on UACC-257 melanoma it was > 100 µM and 58.9 µM and 119 µM; in the assay on XF 498 CNS, 49.3 µM and 66.3 µM.

(Values after PubChem BioAssay (NCI).)
